Data reported in patent US4192871A, “Chemical compounds” (Glaxo Laboratories Limited, priority 1976, dated 1980).

Legend:
[1] = dissolution of the 11β-aminoester salts in aqueous acid (Table 5 and Examples 101, 225-229); format: physicochemical
Protocol: (§1) A solution of the above free base (492 mg; 1 mmole) in ethanol (10 ml) was treated with a solution (10 ml) of M/10 citric acid in ethanol water (9:1) and the mixture evaporated in vacuo at low temperature to afford a froth.
(§2) Table 5 summarises the properties and preparation of salts of the invention by one of the following methods:
(§3) A. The 11β-aminoester (1 part) was added to a solution of the acid (1 molar part) in water and the mixture stirred or shaken until a clear solution was obtained. The solution was made up with water to the weight indicated, filtered through a membrane and the pH determined.
(§4) B. The 11β-aminoester (1 part) was added to a solution of the acid (1 molar part) in water and the mixture stirred or shaken. As free base remained undissolved, further acid was added and the mixture agitated again. The solution was made up with water to the weight indicated and any material which then remained undissolved was collected in a weighed funnel and the weight of free base dissolved calculated and the pH of the solution measured.
(§5) C. A mixture of the 11β-aminoester (1 part), a 0.1 M solution of the acid (1 molar part) and ethanol was evaporated in vacuo and dried to constant weight. The residue was dissolved in a little water and any material which then remained undissolved collected in a weighed funnel and the weight of free base dissolved calculated. The solution was made up with water to the weight indicated and its pH measured.
(§6) D. The 11β-aminoester (1 part) was added to a solution of the acid (1 molar part) in water and the mixture stirred or shaken. The solution was made up with water to the weight indicated. The material remaining undissolved was collected in a weighed funnel and the weight of free base dissolved calculated and the pH of the solution measured.
(§7) E. As in method C except that further acid was added to the residue after addition of the small amount of water.
The solid citric acid used was as its monohydrate.
(§8) Sodium iodide (0.250 g) and diethylamine (0.5 ml) were added to a solution of 11β-chloroacetoxy-2β-ethoxy-3α-hydroxy-D-homo-5α-pregnan-20-one (0.250 g) in acetone (10 ml) and the mixture was left at room temperature for 3 days during which time a white solid precipated. Water was added and the yellow solution was concentrated in vacuo whereupon crystallisation occurred. The needles were filtered off and washed well with acetone/water yielding the title compound (0.201 g), m.p. 160°-73°, [α]D +60.8°. The above base (0.101 g) was stirred with citric acid monohydrate (0.042 g) in water (9.5 ml) for 21 hours. The solution was made up to 10.1 g by weight. The solid remaining out of solution was filtered off, dried and weighed. The solution was passed through a millipore filter giving an aqueous solution of the title compound, concentration 9.75 mg/ml, pH 3.66.
The above base (0.096 g) was stirred in a solution of citric acid monohydrate (0.038 g) in water (8.5 ml) for 20 hours. A large proportion of the steroid remained out of solution. More citric acid (0.038 g) was added and the mixture stirred for a further 6 hours. The solution was made up to 9.6 g by weight and the solid remaining out of solution was filtered off, dried and weighed. The solution was passed through a millipore filter giving an aqueous solution of the title compound, concentration 9.5 mg/ml, pH 2.85.
To a solution of citric acid monohydrate (52.5 mg) in water (2 ml) was added the above free base (115 mg). More water (8 ml) was added and the mixture was stirred for 72 hrs. A small amount of steroid remained out of solution and more citric acid (52.5 mg) was added. Within 5 mins. a clear solution was obtained which was made up to 11.5 g with water and filtered through a millipore filter yielding an aqueous solution of the title citrate, concentration 10 mg/ml, pH 3.0.
The above free base (112 mg) was added to a solution of citric acid monohydrate (52.5 mg) in water (2 ml). More water (8 ml) was added and the mixture was swirled from time to time. […]

pH of the salt solutions = format: physicochemical; conditions: aqueous solution of the salt, Table 5
Protocol: as §1, §2, §3, §4, §5, §6, §7
11β-N,N-Diethylaminoacetoxy-2β-ethoxy-3α-hydroxy-5α-pregnan-20-one (1.45 g) was agitated with citric acid monohydrate (621 mg) in 0.9% w/v sodium chloride solution (steriflex^(R)) (130 ml.) at 20° for 16.5 hours. The resulting solution was stirred at 21° and N/5 sodium hydroxide solution in steriflex^(R) (10.5 ml) was added dropwise during 30 minutes, raising the pH from 3.63 to 4.52. The solution was diluted to 162.5 g so that the concentration of steroid was 9 mg/ml. The solution of the citrate was filtered through a membrane and finally filtered into 8 sterile ampoules.
11β-(N-Butyl-N-ethylaminoacetoxy)-3α-hydroxy-5α-pregnan-20-one (1.80 g) was agitated with citric acid monohydrate (793 mg) in 0.9% w/v sodium chloride solution (steriflex^(R)) (160 ml) at 20° for 19.5 hours. The resulting solution was slightly cloudy. This solution was stirred at 21° and N/5 sodium hydroxide solution in steriflex^(R) (5.8 ml) was added dropwise during 15 minutes, raising the pH from 3.62 to 4.00. The solution was diluted to 201.2 g so that the concentration of steroid was 9 mg/ml. The cloudiness was removed by filtration through a membrane and the clear solution of the citrate was filtered into 8 sterile ampoules.
as §8, with “3.66. […]” for “3.66.”

[2] = method D: 1 molar part acid, undissolved material weighed, WT. of solution 10 g, except Ex. 136: 8.95, 140: 9.52, 165 and 167: 10.1, 190 and 198: 9.8, 191: 8.9, 194: 6.6, 204: 10.09, 219: 10.6 g
[3] = method A: clear solution, 1 molar part acid, made up with water to WT. of solution 10 g, except Ex. 121 and 150: 12, 123: 12.3, 124: 7.5, 129: 10.3, 135 and 139: 8.95, 164: 10.35, 170: 10.4, 181: 10.04, 187: 9.5, 210: 10.2, 221: 15 g
[4] = method B: further acid added, undissolved material weighed, WT. of solution 10 g, except Ex. 130 and 141: 9.2, 142: 9.23, 143, 144, 189 and 199: 9.8, 149: 10.6, 153: 7.9, 162 and 188: 9.5, 163: 68, 166: 10.4, 168: 10.7, 169: 10.9, 183: 8.05, 184 and 201: 9.83, 185: 7.1, 186: 9.3, 192: 10.07, 193: 6.4, 195: 6.8, 196: 7, 197: 7.2, 200: 10.1, 206: 15 g
[5] = method C: ethanol evaporated, residue in water, undissolved material weighed, WT. of solution Ex. 118: 10, 120: 10.4, 148: 9.54, 152: 5.6, 154: 9.1, 155: 8.77, 156: 9.06, 157: 9.5, 158: 9.38, 159: 9.17, 179: 9.65, 180: 11.7, 182: 4.9, 202: 12.05, 213: 12, 214: 11.5, 215: 11.1, 216: 11.6, 217: 12.1 g

| Structure (SMILES) | Dissolved aminoester [1, 2] [mg] | pH (pH of the salt solutions) | Dissolved aminoester [1, 3] [mg] | Dissolved aminoester [1, 4] [mg] | Dissolved aminoester [1, 5] [mg] |
| --- | --- | --- | --- | --- | --- |
| CC(=O)[C@H]1CC[C@H]2[C@@H]3CC[C@H]4C[C@](C)(O)CC[C@]4(C)[C@H]3[C@@H](OC(=O)CN3CCC(C)CC3)C[C@]12C [Example 134] | 84 | 3.2 |  |  |  |
| CC(=O)[C@H]1CC[C@H]2[C@@H]3CC[C@H]4C[C@H](O)CC[C@]4(C)[C@H]3[C@@H](OC(=O)CNCC(C)C)C[C@]12C [Example 135] |  | 3.27 | 80.5 |  |  |
| CCCCNCC(=O)O[C@H]1C[C@]2(C)[C@@H](C(C)=O)CC[C@H]2[C@@H]2CC[C@H]3C[C@H](O)CC[C@]3(C)[C@H]21 [Example 136] | 83.5 | 3.60 |  |  |  |
| CC(=O)[C@H]1CC[C@H]2[C@@H]3CC[C@H]4C[C@H](O)CC[C@]4(C)[C@H]3[C@@H](OC(=O)CNC3CCCC3)C[C@]12C [Example 137] |  | 3.62 | 100 |  |  |
| CC(=O)[C@H]1CC[C@H]2[C@@H]3CC[C@H]4C[C@H](O)CC[C@]4(C)[C@H]3[C@@H](OC(=O)CNC3CCCCC3)C[C@]12C [Example 138] |  | 3.10 | 100 |  |  |
| CCC(C)NCC(=O)O[C@H]1C[C@]2(C)[C@@H](C(C)=O)CC[C@H]2[C@@H]2CC[C@H]3C[C@H](O)CC[C@]3(C)[C@H]21 (some centres unmarked) [Example 139] |  | 3.76 | 89.5 |  |  |
| CC(=O)[C@H]1CC[C@H]2[C@@H]3CC[C@H]4C[C@H](O)CC[C@]4(C)[C@H]3[C@@H](OC(=O)CNC(C)CC(C)C)C[C@]12C (some centres unmarked) [Example 140] | 80.7 | 3.59 |  |  |  |
| CCCC(C)NCC(=O)O[C@H]1C[C@]2(C)[C@@H](C(C)=O)CC[C@H]2[C@@H]2CC[C@H]3C[C@H](O)CC[C@]3(C)[C@H]21 (some centres unmarked) [Example 141] |  | 2.89 |  | 77.3 |  |
| CC(=O)[C@H]1CC[C@H]2[C@@H]3CC[C@H]4C[C@H](O)CC[C@]4(C)[C@H]3[C@@H](OC(=O)CNCC(C)(C)C)C[C@]12C [Example 142] |  | 3.12 |  | 92.3 |  |
| CC(=O)[C@H]1CC[C@H]2[C@@H]3CC[C@H]4C[C@H](O)CC[C@]4(C)[C@H]3[C@@H](OC(=O)CNC(C)CCC(C)C)C[C@]12C (some centres unmarked) [Example 143] |  | 2.85 |  | 86 |  |
| CC(=O)[C@H]1CC[C@H]2[C@@H]3CC[C@H]4C[C@H](O)CC[C@]4(C)[C@H]3[C@@H](OC(=O)CNC(C(C)C)C(C)C)C[C@]12C [Example 144] |  | 2.79 |  | 61 |  |
| CC(=O)[C@H]1CC[C@H]2[C@@H]3CC[C@H]4C[C@H](O)CC[C@]4(C)[C@H]3[C@@H](OC(=O)CNC3CC3)C[C@]12C [Example 145] | 93 | 2.93 |  |  |  |
| CC(=O)[C@H]1CC[C@H]2[C@@H]3CC[C@H]4C[C@H](O)CC[C@]4(C)[C@H]3[C@@H](OC(=O)CNC34CC5CC(CC(C5)C3)C4)C[C@]12C [Example 146] |  | 2.92 |  | 86 |  |
| CCC(C)N(CC(=O)O[C@H]1C[C@]2(C)[C@@H](C(C)=O)CC[C@H]2[C@@H]2CC[C@H]3C[C@H](O)CC[C@]3(C)[C@H]21)C(C)CC (some centres unmarked) [Example 147] |  | 2.03 |  | 85 |  |
| CC(=O)[C@H]1CC[C@H]2[C@@H]3CC[C@H]4C[C@H](O)CC[C@]4(C)[C@H]3[C@@H](OC(=O)CN3CCCCC3C)C[C@]12C (some centres unmarked) [Example 148] |  | 3.55 |  |  | 95.4 |
| CCCO[C@H]1C[C@@]2(C)[C@@H](CC[C@@H]3[C@@H]2[C@@H](OC(=O)CN2CCC(C)CC2)C[C@]2(C)[C@@H](C(C)=O)CC[C@@H]32)C[C@@H]1O [Example 149] |  | 2.9 |  | 106 |  |
| CCCCN(CC)CC(=O)O[C@H]1C[C@]2(C)[C@@H](C(C)=O)CC[C@H]2[C@@H]2CC[C@H]3C[C@H](O)[C@@H](OCC)C[C@]3(C)[C@H]21 [Example 150] |  | 3.35 | 120 |  |  |
| CC(=O)[C@H]1CC[C@H]2[C@@H]3CC[C@H]4C[C@H](O)CC[C@]4(C)[C@H]3[C@@H](OC(=O)CN(C)C)C[C@]12C [Example 151] |  | 3.6 | 100 |  |  |
| CCN(CC)CC(=O)O[C@H]1C[C@]2(C)[C@@H](C(C)=O)CC[C@H]2[C@@H]2CC[C@H]3C[C@H](O)CC[C@]3(C)[C@H]21 [Example 152] |  | 3.6 |  |  | 55.95 |
| CC(=O)[C@H]1CC[C@H]2[C@@H]3CC[C@H]4C[C@H](O)CC[C@]4(C)[C@H]3[C@@H](OC(=O)CN(C(C)C)C(C)C)C[C@]12C [Example 153] |  | 3.02 |  | 79 |  |
| CCCN(CCC)CC(=O)O[C@H]1C[C@]2(C)[C@@H](C(C)=O)CC[C@H]2[C@@H]2CC[C@H]3C[C@H](O)CC[C@]3(C)[C@H]21 [Example 154] |  | 3.5 |  |  | 91 |
| CC(=O)[C@H]1CC[C@H]2[C@@H]3CC[C@H]4C[C@H](O)CC[C@]4(C)[C@H]3[C@@H](OC(=O)CN3CCCC3)C[C@]12C [Example 155] |  | 3.45 |  |  | 87.7 |
